pIC50: −log10 of the molar value.
tested on: Human umbilical endothelial cells (HUVEC); assay: Inhibition of VEGF165-stimulated HUVEC proliferation (3H-thymidine incorporation); format: cell-based; settings: HUVEC proliferation stimulated with 5 ng/ml VEGF165 and 10 μg/ml heparin; 76 h incubation + 16 h 3H-thymidine
Experimental: Human umbilical endothelial cells (HUVEC) were cultivated in IMDM (Gibco BRL), supplemented with 10% foetal calf serum (FBS) (Sigma), 50 μM of β-mercaptoethanol (Fluka), standard antibiotics, 15 μg/ml of endothelial cell growth factor (ECGS, Collaborative Biomedical Products) and 100 μg/ml of heparin (Sigma) on gelatine-coated culture dishes (0.2% gelatine, Sigma) at 37° C., under 5% CO2 in a water-saturated atmosphere.
In order to investigate the inhibitory activity of the compounds according to the invention the cells were “starved” for 16 hours, i.e. kept in culture medium without growth factors (ECGS+heparin). The cells were detached from the culture dishes using trypsin/EDTA and washed once in serum-containing medium. Then they were seeded out in amounts of 2.5×10^3 cells per well.
The proliferation of the cells was stimulated with 5 ng/ml of VEGF165 (vascular endothelial growth factor; H. Weich, GBF Braunschweig) and 10 μg/ml of heparin. As a control, 6 wells in each dish were not stimulated.
The compounds according to the invention were dissolved in 100% dimethylsulphoxide and added to the cultures in various dilutions as triple measurements, the maximum dimethylsulphoxide concentration being 0.3%.
The cells were incubated for 76 hours at 37° C., then for a further 16 hours ^3H-thymidine (0.1 μCi/well, Amersham) was added in order to determine the DNA synthesis. Then the radioactively labelled cells were immobilised on filter mats and the radioactivity incorporated was measured in a β-counter. In order to determine the inhibitory activity of the compounds according to the invention the mean value of the non-stimulated cells was subtracted from the mean value of the factor-stimulated cells (in the presence or absence of the compounds according to the invention).
The relative cell proliferation was calculated as a percentage of the control (HUVEC without inhibitor) and the concentration of active substance which inhibits the proliferation of the cells by 50% (IC50) was determined.

Molecule | pIC50
3-(Z)-{1-(4-[N-acetyl-N-(2-dimethylaminoethyl)-amino]-phenylamino)-1-(3,4-(difluoromethylenedioxy)phenyl)-methylene}-6-chloro-2-indolinone [(al)] | 7.08
Cn1cnc2cc(/C(Nc3ccc(N4CCCC4=O)cc3)=C3/C(=O)Nc4cc(F)ccc43)ccc21 [(as), 3-(Z)-{1-[4-(pyrrolid-2-on-1-yl)-phenylamino]-1-(1-methyl-benzimidazol-5-yl)-methylene}-6-fluoro-2-indolinone] | 7.74
CN(C)CCN(c1ccc(N/C(=C2\C(=O)Nc3cc(Cl)ccc32)c2ccc3c(c2)OCCO3)cc1Cl)S(C)(=O)=O [(ba), 6-chloro-3-(Z)-[1-(4-{N-(2-dimethylamino-ethyl)-N-methanesulphonyl-amino}-3-chloro-phenylamino)-1-(1,2-ethylenedioxyphen-4-yl)-methylene]-2-indolinone] | 7.52
COc1cc(N/C(=C2\C(=O)Nc3cc(Cl)ccc32)c2ccc3c(c2)OCCO3)ccc1N(C)C(=O)CN(C)C [(bb), 6-chloro-3-(Z)-{1-[4-(N-dimethylaminomethylcarbonyl-N-methyl-amino)-3-methoxy-phenylamino]-1-(1,2-ethylenedioxyphen-4-yl)-methylene}-2-indolinone] | 7.48
COc1cc(N/C(=C2\C(=O)Nc3cc(F)ccc32)c2ccc3c(c2)OCCO3)ccc1N(C)C(=O)CN(C)C [(bc), 6-fluoro-3-(Z)-{1-[4-(N-dimethylaminomethylcarbonyl-N-methyl-amino)-3-methoxy-phenylamino]-1-(1,2-ethylenedioxyphen-4-yl)-methylene}-2-indolinone] | 8.30
CN(C)CCN(c1ccc(N/C(=C2\C(=O)Nc3cc(F)ccc32)c2ccc3c(c2)OCCO3)cc1Cl)S(C)(=O)=O [(bd), 6-fluoro-3-(Z)-[1-(4-{N-(2-dimethylamino-ethyl)-N-methanesulphonyl-amino}-3-chloro-phenylamino)-1-(1,2-ethylenedioxyphen-4-yl)-methylene]-2-indolinone] | 8.30

same assay, conditions: Homo sapiens; HUVEC proliferation stimulated with 5 ng/ml VEGF165 and 10 μg/ml heparin; 76 h incubation + 16 h 3H-thymidine

Molecule | pIC50
CN(C)Cc1ccc(N/C(=C2\C(=O)Nc3cc(Cl)ccc32)c2ccc3c(c2)OCO3)cc1 [(a), 3-(Z)-{1-[4-(dimethylaminomethyl)-phenylamino]-1-(3,4-methylenedioxyphenyl)-methylene}-6-chloro-2-indolinone] | 7.96
CCC(=O)N(CCN(C)C)c1ccc(N/C(=C2\C(=O)Nc3cc(F)ccc32)c2ccc3c(c2)OCCO3)cc1 [(aa), 3-(Z)-{1-(4-[N-propionyl-N-(2-dimethylaminoethyl)-amino]-phenylamino)-1-(3,4-ethylenedioxyphenyl)-methylene}-6-fluoro-2-indolinone] | 9.22
CN(C)CCN(c1ccc(N/C(=C2\C(=O)Nc3cc(F)ccc32)c2ccc3c(c2)OCCO3)cc1)S(C)(=O)=O [(ab), 3-(Z)-{1-(4-[N-methanesulphonyl-N-(2-dimethylaminoethyl)-amino]-phenylamino)-1-(3,4-ethylenedioxyphenyl)-methylene}-6-fluoro-2-indolinone] | 9.00
COC(=O)c1ccc2c(c1)NC(=O)/C2=C(\Nc1ccc(N(CCN(C)C)C(C)=O)cc1)c1ccc2c(c1)OCCO2 [(ac), 3-(Z)-{1-(4-[N-acetyl-N-(2-dimethylaminoethyl)-amino]-phenylamino)-1-(3,4-ethylenedioxyphenyl)-methylene}-6-methoxycarbonyl-2-indolinone] | 9.70
COC(=O)c1ccc2c(c1)NC(=O)/C2=C(\Nc1ccc(C(=O)N(C)CCN(C)C)cc1)c1ccc2c(c1)OCCO2 [(ad), 3-(Z)-{1-(4-[N-methyl-N-(2-dimethylaminoethyl)aminocarbonyl]-phenylamino)-1-(3,4-ethylenedioxyphenyl)-methylene}-6-methoxycarbonyl-2-indolinone] | 9.40
COC(=O)c1ccc2c(c1)NC(=O)/C2=C(\Nc1ccc(C(=O)N(C)CCCN(C)C)cc1)c1ccc2c(c1)OCCO2 [(ae), 3-(Z)-{1-(4-[N-methyl-N-(3-dimethylaminopropyl)aminocarbonyl]-phenylamino)-1-(3,4-ethylenedioxyphenyl)-methylene}-6-methoxycarbonyl-2-indolinone] | 9.30
COC(=O)c1ccc2c(c1)NC(=O)/C2=C(\Nc1ccc(C(=O)N(C)CCN(C)C)cc1)c1ccc2c(c1)OCO2 [(af), 3-(Z)-{1-(4-[N-methyl-N-(2-dimethylaminoethyl)aminocarbonyl]-phenylamino)-1-(3,4-methylenedioxyphenyl)-methylene}-6-methoxycarbonyl-2-indolinone] | 9.30
CN1CCN(Cc2ccc(N/C(=C3\C(=O)Nc4cc(C(=O)N(C)C)ccc43)c3ccc4c(c3)OCCO4)cc2)CC1 [(ah), 3-(Z)-{1-(4-[1-methyl-piperazin-4-yl-methyl]-phenylamino)-1-(3,4-ethylenedioxy-phenyl)-methylene}-6-dimethylaminocarbonyl-2-indolinone] | 7.00
CN1CCC(N(C)C(=O)c2ccc(N/C(=C3\C(=O)Nc4cc(F)ccc43)c3ccc4c(c3)OCCO4)cc2)CC1 [(am), 3-(Z)-{1-(4-[N-methyl-N-(1-methyl-4-piperidinyl)-aminocarbonyl]-phenylamino)-1-(3,4-ethylenedioxyphenyl)-methylene}-6-fluoro-2-indolinone] | 8.30
CN(C)CC(=O)N(C)c1ccc(N/C(=C2\C(=O)Nc3ccccc32)c2ccoc2)cc1 [(an), 3-(Z)-{1-(4-[N-methyl-N-(dimethylaminomethylcarbonyl)-amino]-phenylamino)-1-(3-furyl)-methylene}-2-indolinone] | 7.24
CN(C)CCN(C(=O)c1cccnc1)c1ccc(N/C(=C2\C(=O)Nc3cc(Cl)ccc32)c2ccc3c(c2)OCO3)cc1 [(ao), 3-(Z)-{1-(4-[N-(3-pyridylcarbonyl)-N-(2-dimethylaminoethyl)-amino]-phenyl-amino)-1-(3,4-methylenedioxyphenyl)-methylene}-6-chloro-2-indolinone] | 8.22
CCN(CC)CCS(=O)(=O)c1ccc(N/C(=C2\C(=O)Nc3cc(Cl)ccc32)c2ccc3c(c2)OCO3)cc1 [(ap), 3-(Z)-{1-(4-[2-(diethylamino)ethyl-sulphonyl]-phenylamino)-1-(3,4-methylenedioxyphenyl)-methylene}-6-chloro-2-indolinone] | 6.92
CN(C)Cc1ccc(N/C(=C2\C(=O)Nc3ccccc32)c2ccc3c(c2)ncn3C)cc1 [(aq), 3-(Z)-{1-[4-(dimethylaminomethyl)-phenylamino]-1-(1-methyl-benzimidazol-5-yl)-methylene}-2-indolinone] | 7.62
Cn1ccnc1-c1ccc(N/C(=C2\C(=O)Nc3cc(Cl)ccc32)c2ccc3nccnc3c2)cc1 [(ar), 3-(Z)-{1-(4-[1-methylimidazol-2-yl]-phenylamino)-1-(quinoxalin-6-yl)-methylene}-6-chloro-2-indolinone] | 7.15
Cc1cc(C)n(-c2ccc(N/C(=C3\C(=O)Nc4cc(F)ccc43)c3ccc4c(c3)ncn4C)cc2)n1 [(at), 3-(Z)-{1-[4-(3,5-dimethyl-pyrazol-1-yl)-phenylamino]-1-(1-methyl-benzimidazol-5-yl)-methylene}-6-fluoro-2-indolinone] | 7.52
CN(C)CCN(C)S(=O)(=O)c1ccc(N/C(=C2\C(=O)Nc3cc(F)ccc32)c2ccc3c(c2)ncn3C)cc1 [(au), 3-(Z)-{1-[4-(N-methyl-N-{2-dimethylamino-ethyl}-aminosulphonyl)-phenylamino]-1-(1-methyl-benzimidazol-5-yl)-methylene}-6-fluoro-2-indolinone] | 7.89
CN(C)Cc1ccc(N/C(=C2\C(=O)Nc3ccccc32)c2ccc3c(c2)nnn3C)cc1 [(av), 3-(Z)-{1-[4-(dimethylaminomethyl)-phenylamino]-1-(1-methyl-benzotriazol-5-yl)-methylene}-2-indolinone] | 7.03
CN1CCN(C(=O)Cc2ccc(N/C(=C3\C(=O)Nc4cc(F)ccc43)c3ccc4c(c3)OCCO4)cc2)CC1 [(aw), 3-(Z)-{1-(4-[(1-methyl-piperazin-4-yl)-carbonylmethyl]-phenylamino)-1-(3,4-ethylenedioxyphenyl)-methylene}-6-fluoro-2-indolinone] | 8.40
CN1CCN(CC(=O)N(C)c2ccc(N/C(=C3\C(=O)Nc4cc(Cl)ccc43)c3ccc4c(c3)OCO4)cc2)CC1 [(az), 3-(Z)-{1-(4-[N-methyl-N-(4-methylpiperazin-1-yl-methylcarbonyl)-amino]-phenyl-amino)-1-(3,4-methylenedioxyphenyl)-methylene}-6-chloro-2-indolinone] | 8.22
CN1CCN(CC(=O)N(C)c2ccc(N/C(=C3\C(=O)Nc4cc(Cl)ccc43)c3ccc4nccnc4c3)cc2)CC1 [(b), 3-(Z)-{1-(4-[N-methyl-N-(4-methylpiperazin-1-yl-methylcarbonyl)-amino]-phenyl-amino)-1-(quinoxalin-6-yl)-methylene}-6-chloro-2-indolinone] | 8.40
